Drawing on patent US20240072809A1, “ASGPR-BINDING COMPOUNDS FOR THE DEGRADATION OF EXTRACELLULAR PROTEINS” (Avilar Therapeutics, Inc., priority 2020, published 2024), this text covers Kd for 35 compounds.

For the assay, the target named is ASGPR (Homo sapiens (Human), UniProt P07306). Description: Affinity to ASGPR measured by surface plasmon resonance (SPR). It counts as binding.
The mark [1] stands for this setting: ASGPR ligands, Table 4, class symbols, read-out: ASGPR_PR Binding KD.
[2] abbreviates: ASGPR ligands, Table 4, numeric lower bounds, read-out: ASGPR_PR Binding KD.

Like-named read-outs stand apart in the source and are kept apart here. A value given as a limit tells only on which side of the number the result lay.

Chain of ASGPR (P07306 whole entry): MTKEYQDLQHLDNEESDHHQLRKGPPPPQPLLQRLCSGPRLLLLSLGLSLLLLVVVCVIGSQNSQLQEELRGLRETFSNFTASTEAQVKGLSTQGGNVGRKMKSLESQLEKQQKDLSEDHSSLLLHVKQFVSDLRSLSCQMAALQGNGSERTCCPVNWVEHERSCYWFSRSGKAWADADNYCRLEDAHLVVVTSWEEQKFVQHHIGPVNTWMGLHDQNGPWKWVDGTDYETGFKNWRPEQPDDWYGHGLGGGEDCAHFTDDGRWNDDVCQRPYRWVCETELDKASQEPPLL

For orientation: Kd means a measure of binding affinity in units of concentration. In the case of `CS(=O)(=O)c1ccnc(N[C@H]2CO[C@H](CO)[C@H](O)[C@@H]2O)n1` [Compound A371, (2R,3R,4R,5S)-2-(hydroxymethyl)-5-((4-(methylsulfonyl)pyrimidin-2-yl)amino)tetrahydro-2H-pyran-3,4-diol], the Kd under setting [1] was less than 100 µM.

Turning to `N#Cc1cnc(N[C@H]2CO[C@H](CO)[C@H](O)[C@@H]2O)s1` [Compound A372, 2-(((3S,4R,5R,6R)-4,5-dihydroxy-6-(hydroxymethyl)tetrahydro-2H-pyran-3-yl)amino)thiazole-5-carbonitrile], the dissociation constant (Kd) under setting [2] was greater than 20 µM.

Regarding `N#Cc1nc(N[C@H]2CO[C@H](CO)[C@H](O)[C@@H]2O)c2cccn2n1` [Compound A373, 4-(((3S,4R,5R,6R)-4,5-dihydroxy-6-(hydroxymethyl)tetrahydro-2H-pyran-3-yl)amino)pyrrolo[2,1-f][1,2,4]triazine-2-carbonitrile], under setting [1], the Kd was less than 100 µM.

For the compound `COC(=O)c1cc(OC)nc(N[C@H]2CO[C@H](CO)[C@H](O)[C@@H]2O)n1` [Compound A374, methyl 2-(((3S,4R,5R,6R)-4,5-dihydroxy-6-(hydroxymethyl)tetrahydro-2H-pyran-3-yl)amino)-6-methoxypyrimidine-4-carboxylate], the Kd under setting [2] was greater than 20 µM.

On to `CO[C@H]1O[C@H](CO)[C@H](O)[C@H](O)[C@H]1Nc1nccc(C(F)(F)F)n1` [Compound A377], for which the Kd under setting [1] was less than 100 µM.

Turning to `CO[C@H]1O[C@H](CO)[C@H](O)[C@H](O)[C@H]1Nc1ncns1` [Compound A378], the Kd under setting [1] was less than 100 µM.

Take `CO[C@H]1O[C@H](CO)[C@H](O)[C@H](O)[C@H]1Nc1nc(Cl)c(C#N)s1` [Compound A379]: the Kd under setting [1] was less than 100 µM.

With `CO[C@H]1O[C@H](CO)[C@H](O)[C@H](O)[C@H]1Nc1cccc(F)n1` [Compound A380], under setting [1], the Kd was less than 100 µM.

For `CO[C@H]1O[C@H](CO)[C@H](O)[C@H](O)[C@H]1Nc1cccc(C(F)(F)F)n1` [Compound A381], the Kd under setting [1] was less than 100 µM.

For the compound `CO[C@H]1O[C@H](CO)[C@H](O)C[C@H]1Nc1nc(N2CCOCC2)ns1` [Compound A382], the Kd under setting [1] is less than 100 µM.

On to `CO[C@@H]1O[C@H](CO)[C@H](O)[C@H](O)[C@H]1Nc1ncc(F)cc1F` [Compound A383, (2R,3R,4R,5R,6R)-5-((3,5-difluoropyridin-2-yl)amino)-2-(hydroxymethyl)-6-methoxytetrahydro-2H-pyran-3,4-diol], for which the Kd under setting [1] is less than 100 µM.

In the case of `CO[C@@H]1O[C@H](CO)[C@H](O)[C@H](O)[C@H]1Nc1nccc(C(F)(F)F)n1` [Compound A384], the Kd under setting [1] is less than 100 µM.

For `CO[C@@H]1O[C@H](CO)[C@H](O)[C@H](O)[C@H]1Nc1nc(C(=O)O)cs1` [Compound A385], under setting [2], the Kd was greater than 200 µM.

As for `CO[C@@H]1O[C@H](CO)[C@H](O)[C@H](O)[C@H]1Nc1nc(C#N)cs1` [Compound A386], the dissociation constant Kd under setting [2] is greater than 20 µM.

On to `OC[C@H]1OC[C@@H](Nc2ncc(Cl)cc2F)[C@@H](O)[C@H]1O` [Compound A388], for which, under setting [2], the Kd was greater than 20 µM.

Take `OC[C@H]1OC[C@@H](NC2=NCCC(C(F)(F)F)=N2)[C@@H](O)[C@H]1O` [Compound A389]: the Kd under setting [2] is greater than 20 µM.

Take `CN1CCN(C[C@@H]2CO[C@H](CO)[C@H](O)[C@@H]2O)CC1` [Compound A390, (2R,3R,4R,5R)-2-(hydroxymethyl)-5-((4-methylpiperazin-1-yl)methyl) tetrahydro-2H-pyran-3,4-diol]: the Kd under setting [2] was greater than 200 µM.

For the compound `CN1CCN([C@@H]2CO[C@H](CO)[C@H](O)[C@@H]2O)C1=O` [Compound A392, 1-((3R,4R,5R,6R)-4,5-dihydroxy-6-(hydroxymethyl)tetrahydro-2H-pyran-3-yl)-3-methylimidazolidin-2-one], the dissociation constant Kd under setting [1] lay in the range of 100 to 500 µM.

On to `CN(C)[C@@H]1CO[C@H](CO)[C@H](O)[C@@H]1O` [Compound A393, (2R,3R,4R,5R)-5-(dimethylamino)-2-(hydroxymethyl)tetrahydro-2H-pyran-3,4-diol], for which the Kd under setting [1] was in the range of 100 to 500 µM.

With `Cn1cc([C@@H]2CO[C@H](CO)[C@H](O)[C@@H]2O)cn1` [Compound A394, (2R,3R,4R,5R)-2-(hydroxymethyl)-5-(1-methyl-1H-pyrazol-4-yl)tetrahydro-2H-pyran-3,4-diol], the Kd under setting [2] was greater than 200 µM.

Regarding `OC[C@H]1OC[C@@H](c2cncnc2)[C@@H](O)[C@H]1O` [Compound A395, (2R,3R,4R,5R)-2-(hydroxymethyl)-5-(pyrimidin-5-yl)tetrahydro-2H-pyran-3,4-diol], the Kd under setting [2] was greater than 200 µM.

For `OC[C@H]1O[C@H]2[C@@H]([C@@H](O)[C@H]1O)C2(Cl)Cl` [Compound A397, (1S,3R,4R,5R,6R)-7,7-dichloro-3-(hydroxymethyl)-2-oxabicyclo[4.1.0]heptane-4,5-diol], the Kd under setting [1] lay in the range of 100 to 500 µM.

For the compound `NC(=O)C[C@@H]1CO[C@H](CO)[C@H](O)[C@@H]1O` [Compound A399, 2-((3R,4R,5R,6R)-4,5-dihydroxy-6-(hydroxymethyl)tetrahydro-2H-pyran-3-yl)acetamide], the Kd under setting [2] was greater than 200 µM.

For `CNC(=O)[C@@H]1CO[C@H](CO)[C@H](O)[C@@H]1O` [Compound A400, (3R,4R,5R,6R)-4,5-dihydroxy-6-(hydroxymethyl)-N-methyltetrahydro-2H-pyran-3-carboxamide], the Kd under setting [2] is greater than 200 µM.

Regarding `COC(=O)[C@@H]1CO[C@H](CO)[C@H](O)[C@@H]1O` [Compound A401, methyl (3R,4R,5R,6R)-4,5-dihydroxy-6-(hydroxymethyl)tetrahydro-2H-pyran-3-carboxylate], under setting [2], the dissociation constant Kd was greater than 200 µM.

With `CC(=O)NCCNC[C@@H]1CO[C@H](CO)[C@H](O)[C@@H]1O` [Compound A402, N-(2-((((3R,4R,5R,6R)-4,5-dihydroxy-6-(hydroxymethyl)tetrahydro-2H-pyran-3-yl)methyl)amino)ethyl)acetamide], the Kd under setting [2] was greater than 200 µM.

With `NC(=O)NC[C@@H]1CO[C@H](CO)[C@H](O)[C@@H]1O` [Compound A403, 1-(((3R,4R,5R,6R)-4,5-dihydroxy-6-(hydroxymethyl)tetrahydro-2H-pyran-3-yl)methyl)urea], the Kd under setting [2] is greater than 20 µM.

For `C=CCO[C@H]1O[C@H](CO)[C@H](O)[C@H](O)[C@H]1NC(=O)C(F)(F)F` [Compound A404, N-((2S,3R,4R,5R,6R)-2-(allyloxy)-4,5-dihydroxy-6-(hydroxymethyl)tetrahydro-2H-pyran-3-yl)-2,2,2-trifluoroacetamide], the equilibrium dissociation constant (Kd) under setting [1] is less than 100 µM.

Take `C=CCO[C@H]1O[C@H](CO)[C@H](O)[C@H](O)[C@H]1Nc1nc(Cl)ns1` [Compound A405, (2R,3R,4R,5R,6S)-6-(allyloxy)-5-((3-chloro-1,2,4-thiadiazol-5-yl)amino)-2-(hydroxymethyl)tetrahydro-2H-pyran-3,4-diol]: the dissociation constant Kd under setting [1] was less than 100 µM.

As for `C=CCO[C@H]1O[C@H](CO)[C@H](O)[C@H](O)[C@H]1Nc1nccc(C(F)(F)F)n1` [Compound A406, (2R,3R,4R,5R,6S)-6-(allyloxy)-2-(hydroxymethyl)-5-((4-(trifluoromethyl)pyrimidin-2-yl)amino)tetrahydro-2H-pyran-3,4-diol], the dissociation constant Kd under setting [1] is less than 100 µM.

Consider `NC(COCCC(=O)NCCOCCOCCOCCOC[C@H]1OC[C@H](Nc2nccc(C(F)(F)F)n2)[C@@H](O)[C@H]1O)COCCC(=O)NCCOCCOCCOCCOC[C@H]1OC[C@H](Nc2nccc(C(F)(F)F)n2)[C@@H](O)[C@H]1O` [Compound A422, 3,3′-((2-aminopropane-1,3-diyl)bis(oxy))bis(N-(1-((2R,3R,4R,5S)-3,4-dihydroxy-5-((4-(trifluoromethyl)pyrimidin-2-yl)amino)tetrahydro-2H-pyran-2-yl)-2,5,8,11-tetraoxatridecan-13-yl)propanamide)], for which the Kd (ASGPR ligands with linker, Table 5, read-out: ASGPR_SPR Binding KD) is less than 100 µM.

On to `NC[C@@H]1CO[C@H](CO)[C@H](O)[C@@H]1O` [Compound A425, (2R,3R,4R,5R)-5-(aminomethyl)-2-(hydroxymethyl)tetrahydro-2H-pyran-3,4-diol], for which the Kd under setting [1] is greater than 1000 µM.

Regarding `COc1cc(N[C@H]2[C@H]3OC[C@](CO)(O3)[C@H](O)[C@@H]2O)nc(C#N)n1` [Compound A426], under setting [1], the Kd was less than 100 µM.

`OC[C@@]12CO[C@@H](O1)[C@H](Nc1cncc(C(F)(F)F)n1)[C@@H](O)[C@H]2O` [Compound A427]: the Kd under setting [1] was less than 100 µM.

In the case of “(2R,3R,4R,5R)-2-(hydroxymethyl)-5-((4-methylpiperazin-1-yl)methyl)tetrahydro-2H-pyran-3,4-diol [Compound A212]”, under setting [1], the Kd lay within 100 to 500 µM.
